# Key:
# [1] = test system: HER2-positive SK-BR-3 cells; assay: In vitro cell viability assay (Cell-Titer Glo Luminescence), HER2-positive cells; format: cell-based; conditions: 96 h incubation, 40-0.018 nM, 2-fold dilutions, viability as % of untreated cells
# Protocol: (§1) The in vitro efficacy of the antibody and Fab conjugates prepared in Examples 3 and 4 respectively were determined by measuring the inhibitory effect on cell growth of HER-2 receptor over-expressing cancer cell lines.
# (§2) Loss of tumour cell viability following treatment with cytotoxic drugs or ADCs in vitro can be measured by growing cell lines in the presence of increasing concentrations of drugs or ADCs and quantifying the loss of proliferation or metabolic activity using Cell-Titer Glo® Luminescence reagent (Promega Corp. Technical Bullettin TB288; Lewis Phillips G. D, Cancer Res 2008; 68:9280-9290). […]
# (§3) HER2-positive SK-BR-3 and HER2-negative MCF-7 cells were trypsinised with 3 mL Trypsin EDTA for 5-15 min. […] Cells were counted using a Neubauer haemocytometer and adjusted to a cell density of 3×10^4/mL for MCF-7 and 5×10^4/mL for SK-BR-3 respectively. […]
# (§4) The cell viability assay was carried out using the Cell-Titer Glo® Luminescence reagent, as described by the manufacturer's instructions, (Promega Corp. Technical Bulletin TB288; Lewis Phillips G. D, Cancer Res 2008; 68:9280-9290). […]
# (§5) Luminescence was recorded using a plate reader (e.g. MD SpectramaxM3 plate reader), and data subsequently analysed using a four parameter non-linear regression model.
# (§6) Viability is expressed as % of untreated cells. […]
# [2] = test system: HER2-negative MCF-7 cells; assay: In vitro cell viability assay (Cell-Titer Glo Luminescence), HER2-negative cells; format: cell-based; conditions: 96 h incubation, 200-0.1 nM free AHX-DM1, 3 fold dilutions
# Protocol: as §1, §2, §3, §4, §5, §6
smiles,measurement,setting,value
COc1cc2cc(c1Cl)N(C)C(=O)C[C@H](OC(=O)[C@H](C)N(C)C(=O)CCCCCN)[C@]1(C)O[C@H]1[C@H](C)[C@@H]1C[C@@](O)(NC(=O)O1)[C@H](OC)/C=C/C=C(\C)C2 [AHX-DM1],IC50,[1],3.4 nM
same,IC50,[2],36.3 nM

# Source: US20150283259A1, “DRUG-PROTEIN CONJUGATES” (priority 2012, published 2015)
